Measured values: patent US20240216547A1, “USE OF FLUORESCEIN DICARBONATE DERIVATIVES AS A CELL MARKER” (UNIVERSITE JEAN MONNET SAINT ETIENNE, priority 2021, published 2024)

Assays:
Assay type in all cases: cell-based
[1] = Cytotoxicity by LDH release (CyQUANT LDH Cytotoxicity Assay); conditions: human, HCE-2, 4 μM, 45 min contact, read-out: cytotoxicity (% of dead cells, LDH)
Procedure: The cytotoxicity of a solution of compound 1 in Cremophor® EL [CAS 61791-12-6](molar ratio 1/1), designated under the reference F4267, compared to that of calcein-AM, was evaluated on the human corneal epithelium cell line immortalized by SV40, HCE-2 (ATCC CRL-11135) using two solutions of F4267 of concentrations [40 μM] and [1000 μM] or calcein-AM (FP-F19820, Interchim) [4 μM] diluted in optiMEM (11058021, Gibco, ThermoFisher) and deposited for 45 minutes on the cells (100 μL per well seeded 24 hours previously at 1.10^5 cells/mL [3788, Corning, surface: 0.32 cm^2]. After 45 minutes of contact with compound 1 or with calcein-AM, the cells were rinsed with their culture medium, then returned to culture in an oven with 5% CO2, at 37° C. Cytotoxicity was measured by dosing lactate dehydrogenases (LDH) released into the supernatant using the CyQUANT LDH Cytotoxicity Assay kit (C20301, ThermoFisher, see cytotoxicity test below) and expressed as % of dead cells using an internal standard. Cytotoxicity was evaluated 45 minutes (before rinsing), 24 h and 48 h after the start of incubation (3 wells per condition, n=1 experiments).
Lactate DeHydrogenases (LDH) are a family of ubiquitous cytosolic enzymes present in almost all cell types. Membrane damage causes a release of LDH into the external environment. There is a direct correlation between cellular cytotoxicity which causes membrane damage and the amount of LDH present in the extracellular environment. […]
The cytotoxicity test was carried out with tetrazolium salt (INT) which is converted into formazan. […] The concentration of formazan being proportional to the amount of LDH present in the medium, this was quantified by an absorbance reading at 555 nm, against a blank measurement at 650 nm to eliminate the parasitic absorbance of the medium. The percentage of dead cells is then calculated from the formula below, with the maximum LDH activity being that of a well from which all cells have been lysed, and the basal LDH activity, that of a non-treated well.

[2] = test system: normal human fetal lung fibroblasts HEL299; assay: Quality of cytoplasmic marking on adherent cells; conditions: HEL299, 4 μM, FITC filter, macroscope
Procedure: The quality of cytoplasmic marking by compound 1 on cells was evaluated on the adherent line of normal human fetal lung fibroblasts HEL299 [ATCC CCL-137], because they form a cellular monolayer (a single thickness facilitating the evaluation of cellular morphology and enumeration). Cells were seeded at 1.10^5 cells/mL 72 h before marking, then marked with the solution of compound 1 designated by the reference F4267 at [4 μM] and [40 μM] or with a solution of Calcein-AM [4 μM], then observed in a sterile Petri dish under the FITC filter of a macroscope (macro-zoom microscope, MVX10, Olympus, Tokyo, Japan) (2 wells per condition, n=1 experiments).

[3] = test system: HCEC-B4G12 corneal endothelial cells; assay: Impact of repeated cell marking on cell viability; conditions: B4G12, 4 μM, daily marking 45 min, with or without PBS rinsing, D5
Procedure: The experiment is carried out with HCEC-B4G12 corneal endothelial cells (CVCL_2065). The cells are thawed and cultured in their culture medium. The cells are trypsinized once a week before being seeded in wells of 24-well slides at a concentration of 1.10^5 cells/mL. The cells are then incubated for 5 days at 37° C., 5% CO2 until 90% confluence.
The different wells are stained daily with Calcein-AM (4 μM) or product F4267 (40 μM), according to the following conditions: marking for 45 minutes, then rinsing with PBS or marking for 45 minutes without rinsing. The marking and possibly rinsing step is repeated every day for 4 successive days, then after 2 days without marking, the marking is repeated again for 2 consecutive days.
The marking steps are carried out in duplicate. Afterwards, each marking, a well for each of the conditions is observed by epifluorescence microscopy (Olympus IX81 Microscope, FITC channel, ×4 objective, L: 25, Texp: 142.7 ms), while the second well (control) is kept in the darkness in order to evaluate the impact of fluorescence observation at the end of the study. On the last day of the study, the marking is carried out with calecin-AM (4 μM) in the presence of Hoescht ( 1/500) or the product F4267 (40 μM) in the presence of Hoescht ( 1/500), and the wells are imaged in MIA×4 (reconstruction of several fields to obtain a complete image of the well). […]

corneal endothelium = assay: Quality of cytoplasmic marking on corneal endothelium; conditions: human corneal endothelium, 4 μM, 45 min
Procedure: The quality of cytoplasmic marking by compound 1 (solution F4267) on corneal endothelium was compared to that of Calcein-AM by staining paired corneas. The endothelial surface of the corneas was incubated for 45 minutes either with the F4267 solution (40 μM on the left eye, LE) or with Calcein-AM (4 μM on the right eye, RE) following a validated staining protocol. (Invest Ophthalmol Vis Sci. 2011, 52 (8), 6018-6025, Pipparelli and al.) (n=2 pairs of corneas).

CC(=O)OCOC(=O)CN(CC(=O)OCOC(C)=O)Cc1c(OC(C)=O)ccc2c1Oc1c(ccc(OC(C)=O)c1CN(CC(=O)OCOC(C)=O)CC(=O)OCOC(C)=O)C21OC(=O)c2ccccc21 [Calcein-AM]
cytotoxicity at 45 min, 4 µM ([1]; measured at 45 min): 0.6 ± 0.5% | cytotoxicity at 24 h, 4 µM ([1]; measured at 24 h): 26.4 ± 14.1% | cytotoxicity at 48 h, 4 µM ([1]; measured at 48 h): 18.8 ± 11.1% | quality of cytoplasmic marking [2]: visualize the cell cytoplasms in a similar way | cell layer after repeated marking [3]: less dense | cell layer after repeated marking ([3]; listed as calcein-AM): absence of cell layer | marking differentiating dead cells from living cells (corneal endothelium): marking differentiating dead cells from living cells
